According to the supplement of paper PMC10307832:

How the values were obtained:
Assay in all cases: relative viability (nuclei count vs DMSO), 5 days (fraction); higher = more cells survive
[1] = compound: C1COCCN1C2=NC(=NC3=C2OC4=C3C=CC=N4)C5=CC(=CC=C5)NC(=O)C6=CN=C(C=C6)N + NC(=O)Nc1cc(-c2cccc(F)c2)sc1C(=O)N[C@H]1CCCNC1 [AZD7762] (partner 0.2 µM)
Method in brief: (§1)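 Lung cancer cell lines were pin-tool dosed in 1536-well plates on the day after seeding, with either a lone drug or a fixed anchor-drug dose plus five library-drug doses (not always all listed) in √10 steps. Nuclei were counted on 4× images after 5 days. Relative viability is the ratio of treated-well to vehicle-well nuclei counts, with each value a median of duplicate plates.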

[2] = compound: C1COCCN1C2=NC(=NC3=C2OC4=C3C=CC=N4)C5=CC(=CC=C5)NC(=O)C6=CN=C(C=C6)N + O=C(CCCCCCC(=O)Nc1ccccc1)NO [Vorinostat] (partner 1 µM)
Method in brief: as §1

[3] = compound: CN1CCC(CNc2ccc3ncc(-c4cccc(OC(F)(F)F)c4)n3n2)CC1 [SGI-1776] + O=C(CCCCCCC(=O)Nc1ccccc1)NO [Vorinostat] (partner 1 µM)
Method in brief: as §1

[4] = compound: C1COCCN1C2=NC(=NC3=C2OC4=C3C=CC=N4)C5=CC(=CC=C5)NC(=O)C6=CN=C(C=C6)N + O=C(c1cc(Cc2n[nH]c(=O)c3ccccc23)ccc1F)N1CCN(C(=O)C2CC2)CC1 [Olaparib] (partner 8 µM)
Method in brief: as §1

Cell Line | relative viability ([1]; first compound 0.02 µM) | relative viability ([1]; first compound 0.06325 µM) | relative viability ([1]; first compound 0.2 µM) | relative viability ([1]; first compound 0.6325 µM) | relative viability ([1]; first compound 2 µM) | relative viability ([2]; first compound 0.02 µM) | relative viability ([2]; first compound 0.06325 µM) | relative viability ([2]; first compound 0.2 µM) | relative viability ([2]; first compound 0.6325 µM) | relative viability ([2]; first compound 2 µM) | relative viability ([3]; first compound 0.08 µM) | relative viability ([3]; first compound 0.8 µM) | relative viability ([3]; first compound 2.53 µM) | relative viability ([3]; first compound 8 µM) | relative viability ([4]; first compound 0.02 µM) | relative viability ([4]; first compound 0.06325 µM) | relative viability ([4]; first compound 0.2 µM) | relative viability ([4]; first compound 0.6325 µM) | relative viability ([4]; first compound 2 µM)
HCC-366 | 0.329 | 0.419 | 0.213 | 0.216 | 0.174 | 0.395 | 0.36 | 0.327 | 0.444 | 0.249 | 0.462 | 0.418 | 0.392 | 0.266 | 0.488 | 0.419 | 0.322 | 0.412 | 0.218
NCI-H2405 | 0.829 | 0.724 | 0.716 | 0.673 | 0.483 | 1.07 | 1.07 | 1.03 | 0.921 | 0.645 | 1.06 | 1.16 | 0.896 | 0.748 | 0.856 | 0.862 | 0.874 | 0.891 | 0.659
NCI-H1648 | 0.619 | 0.747 | 0.641 | 0.698 | 0.539 | 0.313 | 0.306 | 0.42 | 0.281 | 0.294 | 0.476 | 0.555 | 0.294 | 0.39 | 0.83 | 0.8 | 0.666 | 0.566 | 1.18
NCI-H1355 | 0.875 | 0.765 | 0.713 | 0.66 | 0.539 | 0.695 | 0.737 | 0.614 | 0.598 | 0.538 | 0.692 | 0.709 | 0.651 | 0.551 | 0.736 | 0.886 | 0.781 | 0.757 | 0.572
NCI-H1793 | 0.723 | 0.457 | 0.357 | 0.298 | 0.279 | 0.61 | 0.846 | 0.571 | 0.59 | 0.574 | 0.843 | 1.15 | 0.768 | 0.638 | 0.831 | 0.884 | 0.968 | 0.769 | 0.508
NCI-H1734 | 0.661 | 0.612 | 0.497 | 0.498 | 0.422 | 0.815 | 0.858 | 0.612 | 0.706 | 0.522 | 0.809 | 0.913 | 0.801 | 0.662 | 0.645 | 0.646 | 0.611 | 0.564 | 0.496
LXF-289 | 1.08 | 1.3 | 1.08 | 1.09 | 0.67 | 0.792 | 0.895 | 0.619 | 0.821 | 0.547 | 0.693 | 0.827 | 0.79 | 0.682 | 1.13 | 1.18 | 1.17 | 1.06 | 0.803
PC-3 [JPC-3] | 0.904 | 0.752 | – | 0.784 | 0.625 | 0.729 | 0.678 | – | 0.662 | 0.638 | 0.853 | 1.04 | 0.756 | 0.421 | 1.19 | 1.19 | – | 1.17 | 0.709
NCI-H2087 | 1.35 | 1.44 | 1.32 | 1.17 | 0.647 | 0.611 | 0.911 | 0.842 | 0.724 | 0.199 | 0.927 | 0.783 | 0.443 | 0.773 | 0.582 | 0.62 | 0.546 | 0.636 | 0.32
